Patent US20130165641A1, “6,11-BRIDGED BIARYL MACROLIDES” (Enanta Pharmaceuticals, Inc., priority 2007, published 2013)
Values after ≈ are worked out from the molar mass of the structure shown.

Tested on: MRSA
Test: MIC by micro-dilution method, MRSA isolates
Assay type: cell-based, Staphylococcus aureus
Details: compounds of Formula XVI; for MIC MRSA 7662: MRSA isolate 7662; for MIC MRSA 33591: MRSA isolate 33591
Description: Susceptibility tests can be used to quantitatively measure the in vitro activity of an antimicrobial agent against a given bacterial isolate. Compounds are tested for in vitro antibacterial activity by a micro-dilution method. Minimal Inhibitory Concentration (MIC) is determined in 96 well microtiter plates utilizing the appropriate broth medium for the observed bacterial isolates. […] The diluted compounds (2 μl/well) are then transferred into sterile, uninoculated medium (0.2 mL) by use of a 96 fixed tip-pipetting station. The inoculum for each bacterial strain is standardized to approximately 5×10^5 CFU/mL by optical comparison to a 0.5 McFarland turbidity standard. The plates are inoculated with 10 μl/well of adjusted bacterial inoculum. The 96 well plates are covered and incubated at 35+/−2° C. for 24 hours in ambient air environment. Following incubation, plate wells are visually examined by Optical Density measurement for the presence of growth (turbidity). The lowest concentration of an antimicrobial agent at which no visible growth occurs is defined as the MIC.
All in vitro testing follows the guidelines described in the Approved Standards M7-A7 protocol, published by the Clinical Laboratory Standards Institute (CLSI).

Row | MIC MRSA 7662 [µg/mL] | MIC MRSA 33591 [µg/mL] | Compound
1 | 2.00 (≈ 2.21 µM) | 4.00 (≈ 4.41 µM) | CCC(=O)N=C1[C@H](C)C[C@@]2(C)OC/C(=N/OCc3cnc(-c4nc(N)cs4)cn3)CO[C@H]([C@H]1C)[C@](C)(O)[C@@H](CC)OC(=O)[C@@](C)(F)C(=O)[C@H](C)[C@H]2O[C@@H]1O[C@H](C)C[C@H](N(C)C)[C@H]1O [Example 133]
2 | 2 (≈ 2.21 µM) | 2 (≈ 2.21 µM) | CCC(=O)N=C1[C@H](C)C[C@@]2(C)OC/C(=N/OCc3ncc(-c4cccc(N)n4)s3)CO[C@H]([C@H]1C)[C@](C)(O)[C@@H](CC)OC(=O)[C@@](C)(F)C(=O)[C@H](C)[C@H]2O[C@@H]1O[C@H](C)C[C@H](N(C)C)[C@H]1O [Example 110]
3 | 2.00 (≈ 2.21 µM) | 4.00 (≈ 4.41 µM) | CCC(=O)N=C1[C@H](C)C[C@@]2(C)OC/C(=N/OCc3ncc(-c4nc(N)cs4)cn3)CO[C@H]([C@H]1C)[C@](C)(O)[C@@H](CC)OC(=O)[C@@](C)(F)C(=O)[C@H](C)[C@H]2O[C@@H]1O[C@H](C)C[C@H](N(C)C)[C@H]1O [Example 132]
4 | 2.00 (≈ 2.17 µM) | 4.00 (≈ 4.35 µM) | CC[C@H]1OC(=O)[C@@](C)(F)C(=O)[C@H](C)[C@@H](O[C@@H]2O[C@H](C)C[C@H](N(C)C)[C@H]2O)[C@@]2(C)C[C@@H](C)C(=NC(=O)C(C)C)[C@H](C)[C@@H](OC/C(=N\OCc3ccc(-c4nsc(N)n4)cn3)CO2)[C@]1(C)O [Example 130]
5 | 4 (≈ 4.42 µM) | 8 (≈ 8.84 µM) | CCC(=O)N=C1[C@H](C)C[C@@]2(C)OC/C(=N/OCc3ccc(-c4csc(N)n4)cn3)CO[C@H]([C@H]1C)[C@](C)(O)[C@@H](CC)OC(=O)[C@@](C)(F)C(=O)[C@H](C)[C@H]2O[C@@H]1O[C@H](C)C[C@H](N(C)C)[C@H]1O [Example 125]
6 | 4.00 (≈ 4.49 µM) | 8.00 (≈ 8.99 µM) | CC[C@H]1OC(=O)[C@@](C)(F)C(=O)[C@H](C)[C@@H](O[C@@H]2O[C@H](C)C[C@H](N(C)C)[C@H]2O)[C@@]2(C)C[C@@H](C)C(=NC(=O)OC)[C@H](C)[C@@H](OC/C(=N\OCc3ccc(-n4ccc(N)n4)cn3)CO2)[C@]1(C)O [Example 124]
7 | 4.00 (≈ 4.5 µM) | 8.00 (≈ 9 µM) | CCC(=O)N=C1[C@H](C)C[C@@]2(C)OC/C(=N/OCc3ncc(-c4cccc(N)n4)o3)CO[C@H]([C@H]1C)[C@](C)(O)[C@@H](CC)OC(=O)[C@@](C)(F)C(=O)[C@H](C)[C@H]2O[C@@H]1O[C@H](C)C[C@H](N(C)C)[C@H]1O [Example 134]
8 | 4 (≈ 4.57 µM) | 8 (≈ 9.14 µM) | CC[C@H]1OC(=O)[C@@](C)(F)C(=O)[C@H](C)[C@@H](O[C@@H]2O[C@H](C)C[C@H](N(C)C)[C@H]2O)[C@@]2(C)C[C@@H](C)C(=NC(C)=O)[C@H](C)[C@@H](OC/C(=N\OCc3coc(-c4cccc(N)n4)n3)CO2)[C@]1(C)O [Example 126]
9 | 2.00 (≈ 2.2 µM) | 2.00 (≈ 2.2 µM) | [2H]C([2H])([2H])C([2H])([2H])C(=O)N=C1[C@H](C)C[C@@]2(C)OC/C(=N/OCc3ccc(-c4nc(N)cs4)cn3)CO[C@H]([C@H]1C)[C@](C)(O)[C@@H](CC)OC(=O)[C@@](C)(F)C(=O)[C@H](C)[C@H]2O[C@@H]1O[C@H](C)C[C@H](N(C)C)[C@H]1O [Example 135]
10 | 4 (≈ 4.38 µM) | 8 (≈ 8.75 µM) | CC[C@H]1OC(=O)[C@@](C)(F)C(=O)[C@H](C)[C@@H](O[C@@H]2O[C@H](C)C[C@H](N(C)C)[C@H]2O)[C@@]2(C)C[C@@H](C)C(=NC(=O)C(C)C)[C@H](C)[C@@H](OC/C(=N\OCc3ccc(-c4nccc(N)n4)cn3)CO2)[C@]1(C)O [Example 114]
11 | 4.00 (≈ 4.41 µM) | 8.00 (≈ 8.83 µM) | CCC(=O)N=C1[C@H](C)C[C@@]2(C)OC/C(=N/OCc3ccc(-c4nsc(N)n4)nc3)CO[C@H]([C@H]1C)[C@](C)(O)[C@@H](CC)OC(=O)[C@@](C)(F)C(=O)[C@H](C)[C@H]2O[C@@H]1O[C@H](C)C[C@H](N(C)C)[C@H]1O [Example 129]

More lines, now with the values behind:

Row | Compound | MIC MRSA 7662 [µg/mL] | MIC MRSA 33591 [µg/mL]
12 | CCC1OC(=O)C(C)(F)C(=O)C(C)C(OC2OC(C)CC(N(C)C)C2O)C2(C)CC(C)C(=NC(C)=O)C(C)C(OCC(=NOCc3ccc(-n4ccc(N)n4)c(F)c3)CO2)C1(C)O (stereo not drawn) [Example 95] | 8 (≈ 8.98 µM) | 8 (≈ 8.98 µM)
13 | CC[C@H]1OC(=O)[C@@](C)(F)C(=O)[C@H](C)[C@@H](O[C@@H]2O[C@H](C)C[C@H](N(C)C)[C@H]2O)[C@@]2(C)C[C@@H](C)C(=NC(C)=O)[C@H](C)[C@@H](OC/C(=N\OCc3ccc(-c4nccc(N)n4)cn3)CO2)[C@]1(C)O [Example 102] | 8 (≈ 9.03 µM) | 8 (≈ 9.03 µM)
14 | CCCC(=O)N=C1C(C)CC2(C)OCC(=NOCc3ccc(-c4cccc(N)n4)cn3)COC(C1C)C(C)(O)C(CC)OC(=O)C(C)(F)C(=O)C(C)C2OC1OC(C)CC(N(C)C)C1O (stereo not drawn) [Example 76] | 4 (≈ 4.38 µM) | 4 (≈ 4.38 µM)
15 | CCC(=O)N=C1C(C)CC2(C)OCC(=NOCc3ccc(-n4ccc(N)n4)cc3)COC(C1C)C(C)(O)C(CC)OC(=O)C(C)C(=O)C(C)C2OC1OC(C)CC(N(C)C)C1O (stereo not drawn) [Example 83] | 2 (≈ 2.3 µM) | 4 (≈ 4.6 µM)
16 | CC[C@H]1OC(=O)[C@@](C)(F)C(=O)[C@H](C)[C@@H](O[C@@H]2O[C@H](C)C[C@H](N(C)C)[C@H]2O)[C@@]2(C)C[C@@H](C)C(=NC(C)=O)[C@H](C)[C@@H](OC/C(=N\OCc3cnc(-c4cccc(N)n4)cn3)CO2)[C@]1(C)O [Example 103] | 8 (≈ 9.03 µM) | 8 (≈ 9.03 µM)
17 | CC[C@H]1OC(=O)[C@H](C)C(=O)[C@H](C)[C@@H](O[C@@H]2O[C@H](C)C[C@H](N(C)C)[C@H]2O)[C@@]2(C)C[C@@H](C)C(=NC(C)=O)[C@H](C)[C@@H](OC/C(=N\OCc3ccc(-c4nc(N)cs4)cn3)CO2)[C@]1(C)O [Example 108] | 8 (≈ 9.16 µM) | 8 (≈ 9.16 µM)
18 | CCC(=O)N=C1C(C)CC2(C)OCC(=NOCc3ccc(-n4ccc(N)n4)nc3)COC(C1C)C(C)(O)C(CC)OC(=O)C(C)(F)C(=O)C(C)C2OC1OC(C)CC(N(C)C)C1O (stereo not drawn) [Example 79] | 2 (≈ 2.25 µM) | 4 (≈ 4.5 µM)
19 | CCC1OC(=O)C(C)C(=O)C(C)C(OC2OC(C)CC(N(C)C)C2O)C2(C)CC(C)C(=NC(=O)C(C)C)C(C)C(OCC(=NOCc3ccc(-n4ccc(N)n4)cc3)CO2)C1(C)O (stereo not drawn) [Example 90] | 8 (≈ 9.06 µM) | 8 (≈ 9.06 µM)
20 | CCC(=O)N=C1C(C)CC2(C)OCC(=NOCc3ccc(-n4ccc(N)n4)cn3)COC(C1C)C(C)(O)C(CC)OC(=O)C(C)(F)C(=O)C(C)C2OC1OC(C)CC(N(C)C)C1O (stereo not drawn) [Example 92] | 2 (≈ 2.25 µM) | 4 (≈ 4.5 µM)
21 | CC[C@H]1OC(=O)[C@@](C)(F)C(=O)[C@H](C)[C@@H](O[C@@H]2O[C@H](C)C[C@H](N(C)C)[C@H]2O)[C@@]2(C)C[C@@H](C)C(=NC(C)=O)[C@H](C)[C@@H](OC/C(=N\OCc3ccc(-c4csc(N)n4)cn3)CO2)[C@]1(C)O [Example 104] | 8 (≈ 8.98 µM) | 8 (≈ 8.98 µM)
22 | CC[C@H]1OC(=O)[C@@](C)(F)C(=O)[C@H](C)[C@@H](O[C@@H]2O[C@H](C)C[C@H](N(C)C)[C@H]2O)[C@@]2(C)C[C@@H](C)C(=NC(C)=O)[C@H](C)[C@@H](OC/C(=N\OCc3ccc(-c4nc(N)cs4)cn3)CO2)[C@]1(C)O [Example 101] | 2 (≈ 2.24 µM) | 4 (≈ 4.49 µM)
23 | CCC1OC(=O)C(C)C(=O)C(C)C(OC2OC(C)CC(N(C)C)C2O)C2(C)CC(C)C(=NC(C)=O)C(C)C(OCC(=NOCc3ccc(-n4ccc(N)n4)cc3F)CO2)C1(C)O (stereo not drawn) [Example 84] | 8 (≈ 9.16 µM) | 8 (≈ 9.16 µM)
24 | CC[C@H]1OC(=O)[C@@](C)(F)C(=O)[C@H](C)[C@@H](O[C@@H]2O[C@H](C)C[C@H](N(C)C)[C@H]2O)[C@@]2(C)C[C@@H](C)C(=NC(C)=O)[C@H](C)[C@@H](OC/C(=N\OCc3ccc(-c4nccc(N)n4)cc3)CO2)[C@]1(C)O [Example 105] | 8 (≈ 9.04 µM) | 8 (≈ 9.04 µM)
25 | CC[C@H]1OC(=O)[C@@](C)(F)C(=O)[C@H](C)[C@@H](O[C@@H]2O[C@H](C)C[C@H](N(C)C)[C@H]2O)[C@@]2(C)C[C@@H](C)C(=NC(C)=O)[C@H](C)[C@@H](OC/C(=N\OCc3ccc(-c4nsc(N)n4)cn3)CO2)[C@]1(C)O [Example 107] | 8 (≈ 8.97 µM) | 16 (≈ 17.9 µM)
26 | CCC1OC(=O)C(C)(F)C(=O)C(C)C(OC2OC(C)CC(N(C)C)C2O)C2(C)CC(C)C(=NC(C)=O)C(C)C(OCC(=NOCc3ccc(-n4ccc(N)n4)nc3)CO2)C1(C)O (stereo not drawn) [Example 78] | 8 (≈ 9.15 µM) | 8 (≈ 9.15 µM)
27 | CCC1OC(=O)C(C)(F)C(=O)C(C)C(OC2OC(C)CC(N(C)C)C2O)C2(C)CC(C)C(=NC(C)=O)C(C)C(OCC(=NOCc3ccc(-n4ccc(N)n4)cc3F)CO2)C1(C)O (stereo not drawn) [Example 85] | 4 (≈ 4.49 µM) | 8 (≈ 8.98 µM)
28 | CCC1OC(=O)C(C)C(=O)C(C)C(OC2OC(C)CC(N(C)C)C2O)C2(C)CC(C)C(=NC(C)=O)C(C)C(OCC(=NOCc3ccc(-n4ccc(N)n4)cc3Cl)CO2)C1(C)O (stereo not drawn) [Example 88] | 8 (≈ 8.99 µM) | 8 (≈ 8.99 µM)
29 | CCC1OC(=O)C(C)(F)C(=O)C(C)C(OC2OC(C)CC(N(C)C)C2O)C2(C)CC(C)C(=NC(=O)C(C)C)C(C)C(OCC(=NOCc3ccc(-c4cccc(N)n4)cn3)CO2)C1(C)O (stereo not drawn) [Example 80] | 4 (≈ 4.38 µM) | 4 (≈ 4.38 µM)
30 | CCC1OC(=O)C(C)(F)C(=O)C(C)C(OC2OC(C)CC(N(C)C)C2O)C2(C)CC(C)C(=NC(=O)C(C)C)C(C)C(OCC(=NOCc3ccc(-n4ccc(N)n4)cn3)CO2)C1(C)O (stereo not drawn) [Example 87] | 2 (≈ 2.22 µM) | 4 (≈ 4.43 µM)
